This passage reports Ki results from ChEMBL document CHEMBL5726298, “Heteroaryl-pyrimidinone compounds as PDE2 inhibitors” (2019).

For this assay, the target named is T1, GMP-stimulated 3',5'-cyclic nucleotide phosphodiesterase (Macaca mulatta, UniProt B3VTJ2).
T1 sequence (B3VTJ2 whole entry): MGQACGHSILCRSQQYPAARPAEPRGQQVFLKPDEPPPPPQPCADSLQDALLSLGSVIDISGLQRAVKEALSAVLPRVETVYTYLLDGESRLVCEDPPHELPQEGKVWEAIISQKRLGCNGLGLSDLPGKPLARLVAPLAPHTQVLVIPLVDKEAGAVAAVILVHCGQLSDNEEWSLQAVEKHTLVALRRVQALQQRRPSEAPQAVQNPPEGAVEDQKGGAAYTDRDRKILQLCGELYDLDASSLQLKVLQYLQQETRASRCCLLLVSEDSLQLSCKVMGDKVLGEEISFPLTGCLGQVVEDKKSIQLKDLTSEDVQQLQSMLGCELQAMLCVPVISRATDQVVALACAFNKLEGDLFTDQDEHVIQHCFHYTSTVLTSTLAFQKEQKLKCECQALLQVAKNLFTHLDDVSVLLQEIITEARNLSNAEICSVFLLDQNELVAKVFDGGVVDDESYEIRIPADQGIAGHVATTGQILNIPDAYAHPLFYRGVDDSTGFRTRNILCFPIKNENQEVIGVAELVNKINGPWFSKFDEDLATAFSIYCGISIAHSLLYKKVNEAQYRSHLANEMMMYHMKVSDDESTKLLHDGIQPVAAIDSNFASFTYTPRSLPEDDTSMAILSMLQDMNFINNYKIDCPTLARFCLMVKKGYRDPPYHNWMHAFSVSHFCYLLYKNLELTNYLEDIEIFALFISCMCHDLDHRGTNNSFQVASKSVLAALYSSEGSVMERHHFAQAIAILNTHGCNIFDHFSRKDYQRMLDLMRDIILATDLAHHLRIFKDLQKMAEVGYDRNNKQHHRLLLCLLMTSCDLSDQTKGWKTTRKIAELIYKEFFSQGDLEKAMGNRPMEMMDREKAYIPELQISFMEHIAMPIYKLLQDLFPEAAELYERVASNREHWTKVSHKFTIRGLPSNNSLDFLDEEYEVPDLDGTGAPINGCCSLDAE
In words: PDE2A3 assay: The activity of the compounds in accordance with the present invention as PDE2 inhibitors may be readily determined using a fluorescence polarization (FP) methodology (Huang, W., et al., J. Biomol Screen, 2002, 7: 215). […] Done in Lab A for rhPDE2A3. For orientation: Polarisation of emitted light reports the rotation of a fluorescent probe.

Regarding `Cc1nc(-c2csc(C(C)c3ccc(C(F)(F)F)cc3)n2)cc(=O)[nH]1` (stereo unspecified), the Ki (commonly a measure of affinity in units of concentration, obtained from inhibition or displacement) was determined as 1240 nM.
